From patent publication US5968932A, “Method of inhibiting sleep apnea” (Gruenenthal GmbH, priority 1998, dated 1999) come the findings set out here.

Molecules are shown by their SMILES.

This data set relates to Sprague-Dawley rats. Kind of data set: Subacute repeated-dose (five weeks) intravenous toxicity with four-week recovery study in rats. It is filed as in vivo, Sprague-Dawley rats (SPF Slc:SD). The protocol: The subacute repeated-dose intravenous toxicity of Montirelin was investigated in Sprague-Dawley rats treated repeatedly at 0.05, 0.5,5 and 50 mg/kg/day for five weeks, and the reversibility of its toxic effects was also investigated by a four-week recovery study.
[…] SPF Slc:SD rats of both sexes (age: four weeks, body weight: 70.0-81.6 g) were purchased from Shizuoka Agriculture Cooperative Association for Laboratory Animals. During a one-week quarantine/acclimation period, the animals were measured for body weight and observed for any general symptoms, and healthy animals showing normal growth were selected and used in the experiment at the age of five weeks.
Males and females were used in five groups (including the control group) of 10 animals/sex, and additional 10 animals/sex were added to the control, 0.5 mg/kg and 50 mg/kg groups to investigate the reversibility of the toxic effect of the test substance. All these animals were randomized to each group by weight stratification so that the differences in initial mean body weight were within 2% between groups. At the start of the treatment, the body weight was 116.5-132.9 g for males and 107.0-123.4 g for females.
The maximal dose was set at […] lower doses were set at 5, 0.5 and 0.05 mg/kg using a common ratio of 1/10. This study also included the vehicle control group.
Dosing solutions were prepared by dissolving a weighed amount of the test substance in physiological saline at a concentration of 1 W/V % using a volumetric flask. Lower dosing solutions were obtained by successive 10-fold dilution of the initial solution. The respective dosing solution was repeatedly administered intravenously once daily for 35 days into the tail vein at a rate of 0.2 ml/10 sec. using a 1/4 syringe for injection. The treatment was given at a constant volume of 0.5 ml/100 g body weight in all dose groups, and the control group was treated with physiological saline at the same volume in the same manner.
Clinical signs in all animals were observed daily between two and four hours after dosing according to Irwin's method of comprehensive observational assessment, and the type, severity, onset time and disappearance time of toxic symptoms were recorded. During the recovery period, the clinical observation was performed once daily in the morning in the same manner. The body weight, food consumption and water consumption were measured in all animals three times weekly in the morning throughout the treatment and recovery periods and recorded.

On to `C[C@H]1SC[C@@H](C(=O)N[C@@H](Cc2c[nH]cn2)C(=O)N2CCC[C@H]2C(N)=O)NC1=O.O.O.O.O` [Montirelin, (3R, 6R) -N-[(6-methyl-5-oxo-3-thiomorpholinyl)carbonyl]-L-histidyl-L-prolinamide tetrahydrate], for which, under “5 mg/kg/day or above i.v., from day 2-3 until about week 4”, the Water consumption result is reported as “increased in both sexes”. The “Day by which polyuria disappeared” value (5 mg/kg/day or higher i.v.) fell in the range of 4 to 28 days. Besides, for the setting “5 mg/kg/day or higher i.v., from day 0-3”, the “Time of polyuria peak” value is on record as “peaked at about one hour after dosing”. Besides, the Transient polyuria result (5 mg/kg/day or higher i.v., males and females) is “almost all males and females showed transient polyuria”. Where the note is “0.05, 0.5, 5 and 50 mg/kg/day i.v., administration and recovery periods”, the Mortality entry is recorded as “no death occurred”. Where the note is “50 mg/kg/day i.v., both sexes”, the “Hematological changes relative to normal range” value is recorded as “within the range of normal physiological variations”; the “Red blood cell count, hemoglobin and hematocrit” value was “increasing tendency in red blood cell count, hemoglobin and hematocrit”; the “Total white blood cell count” value is on record as “decreasing tendency in total white blood cell count”. For the same compound, the Systemic tremor result (50 mg/kg/day i.v., both sexes, from day 0) is on record as “systemic tremor was observed transiently during the injection in both sexes”. The “Day by which systemic tremor disappeared” value (50 mg/kg/day i.v., females) was not above 4 days. In addition, the “Day by which systemic tremor disappeared” value (50 mg/kg/day i.v., males) is not above 6 days. Further, the “Reversibility of observed changes” value (after discontinuing administration, four-week recovery) is “All observed changes were reversed by discontinuing administration”. In addition, where the note is “both sexes, all treatment groups, i.v.”, the “Incidence of hypertrophy of serous cells in the submaxillary gland (histopathology)” value was “showed dose-dependency in both sexes of all treatment groups”. For the same compound, the “Food consumption and body weight changes” value (females, i.v.) was “unremarkable”. Moreover, under “i.v.”, the Blood biochemical parameters result was “No treatment-related abnormalities were observed”; the “Gross changes at autopsy” value is listed as “no treatment-related grossly abnormal changes”; the “Histopathology of other organs (light microscopy)” value was “no remarkable changes were shown at the light microscopic level”; the “Liver and kidney electron microscopical examination” value is recorded as “nor were there any abnormal changes in the liver or kidney”. Moreover, for the setting “i.v.”, the Other hematological parameters result was “not related to the dose” and the “Urinary findings (other than urine volume)” value is reported as “unremarkable”. Besides, for the setting “i.v., administration and recovery periods”, the Other clinical signs entry was “no other remarkable clinical signs”. In addition, the Urine volume result (males and females, 5 mg/kg/day or above i.v., week 2 and 5) is on record as “increase in urine volume”. Besides, under “males, particularly 0.5, 5 and 50 mg/kg/day i.v.”, the Body weight gain entry is “body weight gain was suppressed in males”. The Food consumption result (treated males, versus control males, i.v.) is on record as “tended to decrease food consumption”.
